Among the data in US20260274839A1, “COMPOUND AND USE THEREOF IN TREATING HUMAN DIHYDROOROTATE DEHYDROGENASE (hDHODH)-MEDIATED DISEASES” (SICHUAN UNIVERSITY, priority 2023, published 2026) are inhibition values, retold here.

This experiment has as its target hDHODH (Homo sapiens, UniProt Q02127). Briefly: Determination of hDHODH enzymatic inhibitory activity. Type of experiment: biochemical. The following applies: compound final concentration 1 μM; purified hDHODH 40 nM; absorbance 600 nm.

Sequence of hDHODH (Q02127 whole entry): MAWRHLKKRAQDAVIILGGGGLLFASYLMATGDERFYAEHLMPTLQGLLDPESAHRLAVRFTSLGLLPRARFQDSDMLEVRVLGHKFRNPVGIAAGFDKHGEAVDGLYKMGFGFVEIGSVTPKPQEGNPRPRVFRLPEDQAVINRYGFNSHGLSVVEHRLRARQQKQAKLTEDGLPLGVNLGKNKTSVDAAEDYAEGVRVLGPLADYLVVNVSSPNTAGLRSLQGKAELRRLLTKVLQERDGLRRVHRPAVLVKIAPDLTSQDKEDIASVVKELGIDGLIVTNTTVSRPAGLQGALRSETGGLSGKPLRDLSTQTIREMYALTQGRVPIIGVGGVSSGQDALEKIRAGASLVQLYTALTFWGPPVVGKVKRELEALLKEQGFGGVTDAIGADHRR
Experimental: Determination of hDHODH Enzymatic Inhibitory Activity of Compounds
Assay buffer preparation: 100 mM HEPES buffer, 150 mM NaCl, 10% glycerol, and 0.1% Triton X-100 were mixed, adjusted to pH-8.0. A resulting mixture was diluted with Milli-Q water, and then stored at 4° C. A total volume of the enzyme activity detection system was 60 μL. The procedure was performed as follows: 1 μL of the small-molecule solution (with a final concentration of 1 μM) was added to a 96-well enzyme plate. 39 μL of a mixture containing the purified hDHODH protein (with a final concentration of 40 nM), 2,6-dichloroindophenol sodium salt (with a final concentration of 100 μM), coenzyme Q (CoQ, with a final concentration of 20 μM) were added thereto. The plate was protected from light and incubated at 37° C. with gentle shaking for 30 min. After the incubation was completed, 20 μL of dihydroorotate (DHO, with a final concentration of 200 μM) was added to each well. Absorbance was immediately measured using a microplate reader having the following procedure: kinetic assay: wavelength: 600 nm, total duration: 10 min, interval: every 20 s. Controls: negative control: Dimethyl sulfoxide (DMSO) (equal volume) without inhibitor; blank control: ultra-pure water (equal volume) without DHO substrate. All assays were conducted in triplicate. […]

Turning to `Fc1ccccc1Cn1nc(-c2ccc(C3CC3)cn2)c2cccnc21` [Compound D11], testing at 1 µM gave an inhibition of 48.3%.

What is called inhibition is the share of the control response that was lost under treatment.
